{"source": "ChEMBL document CHEMBL3217438", "about": "“Diphenylbutylpiperidine-based cell autophagy inducers: Design, synthesis and SAR studies” (Medchemcomm, 2011)"}
{"experiment": "Induction of autophagy in human H4-LC3 cells assessed as number of spots of LC3-GFP after 4 hrs by DAPI staining", "format": "functional, cell-based", "units": {"EC50": "µM"}}
{"smiles": "Fc1ccc(C(CCCN2CCC(n3nc4ccccc4n3)CC2)c2ccc(F)cc2)cc1", "EC50": "> 50"}
{"smiles": "FC(F)(F)c1ccc(C(CCCN2CCC(c3c[nH]c4ccccc34)CC2)c2ccc(C(F)(F)F)cc2)cc1", "EC50": 0.45}
{"smiles": "O=C1Nc2ccccc2CN1C1CCN(CCCC(c2ccc(F)cc2)c2ccc(F)cc2)CC1", "EC50": 1.3}
{"smiles": "O=C1c2ccccc2C(=O)N1C1CCN(CCCC(c2ccc(F)cc2)c2ccc(F)cc2)CC1", "EC50": "> 50"}
{"smiles": "Fc1ccc(C(CCCN2CCC(N3Cc4ccccc4C3)CC2)c2ccc(F)cc2)cc1", "EC50": 4.1}
{"smiles": "O=C1Oc2ccccc2CN1C1CCN(CCCC(c2ccc(F)cc2)c2ccc(F)cc2)CC1", "EC50": 4.1}
{"smiles": "Fc1ccc(C(CCCN2CCC(c3c[nH]c4ccccc34)CC2)c2ccc(F)cc2)cc1", "EC50": 6.4}
{"smiles": "O=c1[nH]c2ccccc2c(=O)n1C1CCN(CCCC(c2ccc(F)cc2)c2ccc(F)cc2)CC1", "EC50": 2.8}
{"smiles": "FC(F)(F)c1ccc(C(CCCN2CCC(N3CCc4ccccc43)CC2)c2ccc(C(F)(F)F)cc2)cc1", "EC50": 1.2}
{"smiles": "O=S1(=O)Nc2ccccc2CN1C1CCN(CCCC(c2ccc(F)cc2)c2ccc(F)cc2)CC1", "EC50": 21.7}
{"smiles": "O=c1oc2ccccc2n1C1CCN(CCCC(c2ccc(F)cc2)c2ccc(F)cc2)CC1", "EC50": 8.2}
{"smiles": "O=c1c2ccccc2nnn1C1CCN(CCCC(c2ccc(F)cc2)c2ccc(F)cc2)CC1", "EC50": 7.8}
{"smiles": "Fc1ccc(C(CCCN2CCC(c3nc4ccccc4o3)CC2)c2ccc(F)cc2)cc1", "EC50": 11.2}
{"smiles": "N#CC(CCCN1CCC(N2CCc3ccccc32)CC1)(c1ccccc1)c1ccccc1", "EC50": 4.5}
{"smiles": "Fc1ccc(C(CCCN2CCC(N3CCc4ccccc4C3)CC2)c2ccc(F)cc2)cc1", "EC50": 6}
{"smiles": "Fc1ccc(C(CCCN2CCC(n3cnc4ccccc43)CC2)c2ccc(F)cc2)cc1", "EC50": 4.2}
{"smiles": "O=c1sc2ccccc2n1C1CCN(CCCC(c2ccc(F)cc2)c2ccc(F)cc2)CC1", "EC50": "> 50"}
{"smiles": "O=c1[nH]c2ccccc2n1C1CCN(CCCC(c2ccc(F)cc2)c2ccc(F)cc2)CC1", "note": "[PIMOZIDE]", "EC50": 5.4}
{"smiles": "Fc1ccc(C(CCCN2CCC(n3nnc4ccccc43)CC2)c2ccc(F)cc2)cc1", "EC50": "> 50"}
{"smiles": "FC(F)(F)c1ccc(C(CCCN2CCC(c3nc4ccccc4[nH]3)CC2)c2ccc(C(F)(F)F)cc2)cc1", "EC50": 0.9}
{"smiles": "Fc1ccc(C(CCCN2CCN(c3nsc4ccccc34)CC2)c2ccc(F)cc2)cc1", "EC50": 10.1}
{"smiles": "Fc1ccc(C(CCCN2CCC(c3nc4ccccc4[nH]3)CC2)c2ccc(F)cc2)cc1", "EC50": 4}
{"smiles": "O=C1NCc2ccccc2N1C1CCN(CCCC(c2ccc(F)cc2)c2ccc(F)cc2)CC1", "EC50": 2.9}
{"smiles": "O=S1(=O)NCc2ccccc2N1C1CCN(CCCC(c2ccc(F)cc2)c2ccc(F)cc2)CC1", "EC50": 10.2}
{"smiles": "FC(F)(F)c1ccc(C(CCCN2CCC(N3Cc4ccccc4C3)CC2)c2ccc(C(F)(F)F)cc2)cc1", "EC50": 1.5}
{"smiles": "Fc1ccc(C(CCCN2CCC(N3CCc4ccccc43)CC2)c2ccc(F)cc2)cc1", "EC50": 3.8}
{"smiles": "O=C1NC2(CCN(CCCC(c3ccc(F)cc3)c3ccc(F)cc3)CC2)Nc2ccccc21", "EC50": 1.9}
{"smiles": "O=[N+]([O-])c1ccc2c(cnn2C2CCN(CCCC(c3ccc(F)cc3)c3ccc(F)cc3)CC2)c1", "EC50": 4.5}
{"smiles": "N#CC(CCCN1CCC(c2c[nH]c3ccccc23)CC1)(c1ccccc1)c1ccccc1", "EC50": 2.6}
{"smiles": "Fc1ccc(C(CCCN2CCC(c3noc4cc(F)ccc34)CC2)c2ccc(F)cc2)cc1", "EC50": "> 50"}
{"smiles": "N#CC(CCCN1CCC(c2nc3ccccc3[nH]2)CC1)(c1ccccc1)c1ccccc1", "EC50": 8.5}
{"smiles": "N#CC(CCCN1CCC(N2Cc3ccccc3C2)CC1)(c1ccccc1)c1ccccc1", "EC50": 7.1}
{"smiles": "Fc1ccc(C(CCCN2CCC(c3nc4ccccc4s3)CC2)c2ccc(F)cc2)cc1", "EC50": 10.6}
